Legend:
C57BL/6 wild-type mice = assay: electroretinogram of adult wild-type mice administered KUS; format: in vivo, mouse
Protocol: Electroretinogram recording was performed to assess the visual function of rd10 mice at ages of 21, 25, 29, and 33 days. Mice were dark-adapted overnight before anesthetization. Electroretinograms were recorded using a gold loop corneal electrode with a light-emitting diode (Mayo Corp., Inazawa, Japan). A reference electrode was placed in the mouth and a ground electrode was inserted to the anus. Stimuli were produced with a light emitting diode stimulator (Mayo Corp.). The electroretinogram response signals were amplified, digitized at 10 kHz with a band-pass filter of 0.3 to 500 Hz, and analyzed (PowerLab 2/25; AD instruments, New South Wales, Australia). The a- and b-wave amplitudes and a-wave latency of the mixed cone and rod response (ISCEV (International Society for Clinical Electrophysiology of Vision) standard; scotopic 3.0)[34] were analyzed.
Supplementary Figure 6 (a) Time-dependent changes of b-wave amplitude in dark-adapted electroretinograms in non-treated C57BL/6 wild-type mice. b-wave […]
= 0.004. (b, c) a-wave (b) and b-wave (c) amplitude of adult C57BL/6 wild-type mice administered saline or KUS121 for 7 days. […]
amplitudes of a-and b-waves between mice administered saline or KUS121 (a-wave […]
92.9 vs. 420.8 ± 52.6, P = 0.86, t-test). Error bars indicate SD.
Lane 1, 1µM MG132; lane 2, control; lane 3, 5µM DBeQ; lane 4, 10µM DBeQ; lane 5, 15µM DBeQ; lane 6: KUS11; lane 7, KUS31; lane 8, KUS69; lane 9, KUS 94; lane 10, […]
Lane 1, Tm(-); lane 2, control; lane 3, KUS69; lane 4, KUS94; lane 5, KUS121; lane 6, KUS187; lane 7, Tm(-); lane 8, control; lane 9, 0.1mM ATP; lane 10, 0.3mM ATP; lane 11, 1mM ATP; lane 12, 3mM methylpyruvate; lane 13, 10mM methylpyruvate.

cellular VCP functions = assay: immunoblot of ubiquitinated proteins, CHOP (ER stress) and LC3 (autophagy) in cultured cells; format: cell-based
Source text: (§1) Figure 1 Structures and characterization of KUSs, novel VCP modulators. (a) Structures and IC50 values of KUS11, KUS31, KUS69, KUS94, KUS121, and KUS187. […] (b) ATPase activity assays of recombinant human […], comparing KUSs and DBeQ. (c) Immunoblot analysis of ubiquitinated proteins, an ER stress marker (CHOP), and an autophagy indicator (LC3), comparing KUSs and DBeQ. As a control, MG132, a proteasome inhibitor, was used for the analysis. Actin served as a loading control. Complete scans of the different blots are presented in Supplementary Fig. 7. (d) Comparison of KUSs and DBeQ for cell death-inducing activities. HeLa cells were treated with 50 μM DBeQ or KUSs for 24 hours. […]

HeLa cells = assay: cell death-inducing activity; format: cell-based; conditions: 50 μM, 24 hours
Source text: as §1

[1] = test system: essentially all tested cultured cells; assay: cellular toxicity on cultured cells; format: cell-based; conditions: up to 50 μM
rd10 mice = assay: rd10 mouse model of retinitis pigmentosa (SD-OCT, electroretinogram, histology, electron microscopy, western blot); format: in vivo; conditions: 21-day-old, 50 mg/kg daily i.p. from day 7, vs control
Protocol: Starting 7 days after birth, KUS121 or KUS187 was administered daily (50 mg/kg) by intraperitoneal injection. […] To test the visual function of the mice, dark-adapted electroretinograms were recorded. The amplitude of the a-wave, which represents visual function of photoreceptors, was smaller in the control mice than in the KUS-treated mice (Supplementary Fig. 5b and c). The peak latency of the a-wave, which negatively correlates with visual function of photoreceptors, was delayed in the control mice as compared with the KUS-treated mice (Supplementary Fig. 5d). At age 25 days, the thinning of the outer nuclear layer (ONL) was clearly observed in the control mice (Fig. 5a). The outer nuclear layer and the junction line between the inner segment and outer segment (arrow heads in Fig. 5a), which is generally considered to be positively associated with visual function, were clearly detected in the KUS-treated but not in control mice. […] At age 29 days, the photoreceptor layer was barely detected in SD-OCT images, and electroretinogram records were almost flat in control mice. […]
Spectral-domain optical coherence tomography (SD-OCT) examinations using Multiline OCT (Heidelberg Engineering, Heidelberg, Germany) were performed[33] in rd10 mice at ages of 21, 25, 29, and 33days. Total retinal thickness (from inner limiting membrane to Bruch membrane) in rd10 mice was measured using volume scan images[33] within a circle 0.366 mm in diameter, the center of which was adjusted to the center of the optic nerve head. […]
Electroretinogram recording was performed to assess the visual function of rd10 mice at ages of 21, 25, 29, and 33 days. […] Electroretinograms were recorded using a gold loop corneal electrode with a light-emitting diode (Mayo Corp., Inazawa, Japan). […] The electroretinogram response signals were amplified, digitized at 10 kHz with a band-pass filter of 0.3 to 500 Hz, and analyzed (PowerLab 2/25; AD instruments, New South Wales, Australia). […]

Cc1cc(F)ccc1-c1ccc(/N=N/c2cc(S(=O)(=O)O)c3ccccc3c2N)cn1 [KUS121]
a-wave amplitude (C57BL/6 wild-type mice; adult C57BL/6 wild-type mice, KUS121 for 7 days, saline 203.5 ± 41.6, P = 0.56, in µV (unit assumed)): 195.8 ± 30.2
b-wave amplitude (C57BL/6 wild-type mice; adult C57BL/6 wild-type mice, KUS121 for 7 days, saline 425.8 ± 92.9, P = 0.86, in µV (unit assumed)): 420.8 ± 52.6
change in the amplitude of a- and b-waves vs saline (C57BL/6 wild-type mice; adult wild-type mice): no significant differences
induction of accumulation of ubiquitinated proteins, ER stress (CHOP), autophagy (LC3) (cellular VCP functions): did not induce any of these phenotypes
induction of cell death (HeLa cells): did not induce any of these phenotypes
apparent cellular toxicity [1]: did not manifest any apparent cellular toxicity
mean amplitude of the a-wave, dark-adapted electroretinogram (rd10 mice): larger than that in control rd10 mice

— paper PMC4122966, “Novel VCP modulators mitigate major pathologies of rd10, a mouse model of retinitis pigmentosa” (Scientific Reports, 2014)
